Data on five compounds can be found in the NIST ThermoML archive (doi:10.1021/je500420g).

Molecules are shown by their SMILES. Numbers after ± are expanded uncertainties.

A short description of the data set: xn = mol fraction of the nth substance listed. Particulars: 100 kPa, Liquid, Vibrating tube method.

In the case of `[Br-].[Cs+]` [cesium bromide] + O, the mass density by setting is: (293.15 K, x1 = 0.01) 1090.5 ± 0.2 kg/m3; (293.15 K, x1 = 0.03) 1267.9 ± 0.4 kg/m3; (293.15 K, x1 = 0.05) 1438.8 ± 0.5 kg/m3; (303.15 K, x1 = 0.01) 1086.7 ± 0.2 kg/m3; (303.15 K, x1 = 0.03) 1262.8 ± 0.4 kg/m3; (303.15 K, x1 = 0.05) 1432.6 ± 0.5 kg/m3. The mass density is reported as 1082.3 ± 0.3 kg/m3 (313.15 K, x1 = 0.01); 1257.3 ± 0.4 kg/m3 (313.15 K, x1 = 0.03); 1426 ± 0.5 kg/m3 (313.15 K, x1 = 0.05); 1077.6 ± 0.3 kg/m3 (323.15 K, x1 = 0.01); 1251.5 ± 0.4 kg/m3 (323.15 K, x1 = 0.03); 1419.3 ± 0.5 kg/m3 (323.15 K, x1 = 0.05). The mass density runs as follows: (333.15 K, x1 = 0.01) 1072.4 ± 0.3 kg/m3; (333.15 K, x1 = 0.03) 1245.5 ± 0.4 kg/m3; (333.15 K, x1 = 0.05) 1412.4 ± 0.5 kg/m3.
For `[Cl-].[Cs+]` [cesium chloride] + O, the mass density reads like this: (293.15 K, x1 = 0.01) 1069.9 ± 0.2 kg/m3; (293.15 K, x1 = 0.03) 1208.3 ± 0.3 kg/m3; (293.15 K, x1 = 0.05) 1342.6 ± 0.4 kg/m3; (303.15 K, x1 = 0.01) 1066.3 ± 0.2 kg/m3; (303.15 K, x1 = 0.03) 1203.6 ± 0.3 kg/m3; (303.15 K, x1 = 0.05) 1337 ± 0.4 kg/m3. The mass density by setting is: (313.15 K, x1 = 0.01) 1062.1 ± 0.2 kg/m3; (313.15 K, x1 = 0.03) 1198.6 ± 0.3 kg/m3; (313.15 K, x1 = 0.05) 1331.2 ± 0.4 kg/m3; (323.15 K, x1 = 0.01) 1057.5 ± 0.2 kg/m3; (323.15 K, x1 = 0.03) 1193.2 ± 0.3 kg/m3; (323.15 K, x1 = 0.05) 1325.2 ± 0.4 kg/m3. Besides, the mass density was found to be 1052.4 ± 0.2 kg/m3 (333.15 K, x1 = 0.01); 1187.7 ± 0.3 kg/m3 (333.15 K, x1 = 0.03); 1319.1 ± 0.4 kg/m3 (333.15 K, x1 = 0.05).
For the compound `[Cs+].[F-]` [cesium fluoride (CsF)] + O, the mass density runs as follows: (293.15 K, x1 = 0.01) 1070.9 ± 0.2 kg/m3; (293.15 K, x1 = 0.03) 1210.1 ± 0.3 kg/m3; (293.15 K, x1 = 0.05) 1349.9 ± 0.4 kg/m3; (303.15 K, x1 = 0.01) 1068 ± 0.2 kg/m3; (303.15 K, x1 = 0.03) 1206.2 ± 0.3 kg/m3; (303.15 K, x1 = 0.05) 1345.4 ± 0.4 kg/m3. Besides, the mass density stood at 1064.3 ± 0.2 kg/m3 (313.15 K, x1 = 0.01); 1201.7 ± 0.3 kg/m3 (313.15 K, x1 = 0.03); 1340.4 ± 0.4 kg/m3 (313.15 K, x1 = 0.05); 1059.9 ± 0.3 kg/m3 (323.15 K, x1 = 0.01); 1196.6 ± 0.3 kg/m3 (323.15 K, x1 = 0.03); 1334.9 ± 0.4 kg/m3 (323.15 K, x1 = 0.05). Moreover, the mass density is reported as 1053 ± 0.3 kg/m3 (333.15 K, x1 = 0.01); 1190.9 ± 0.3 kg/m3 (333.15 K, x1 = 0.03); 1329.1 ± 0.4 kg/m3 (333.15 K, x1 = 0.05).
As for `[Cs+].[I-]` [cesium iodide] + O, the mass density by setting is: (293.15 K, x1 = 0.01) 1109.5 ± 0.3 kg/m3; (293.15 K, x1 = 0.03) 1320.7 ± 0.4 kg/m3; (293.15 K, x1 = 0.05) 1519.4 ± 0.6 kg/m3; (303.15 K, x1 = 0.01) 1105.6 ± 0.3 kg/m3; (303.15 K, x1 = 0.03) 1314.9 ± 0.4 kg/m3; (303.15 K, x1 = 0.05) 1512.1 ± 0.6 kg/m3. Besides, the mass density turned out to be 1101 ± 0.3 kg/m3 (313.15 K, x1 = 0.01); 1308.9 ± 0.4 kg/m3 (313.15 K, x1 = 0.03); 1504.5 ± 0.6 kg/m3 (313.15 K, x1 = 0.05); 1096 ± 0.3 kg/m3 (323.15 K, x1 = 0.01); 1302.5 ± 0.4 kg/m3 (323.15 K, x1 = 0.03); 1496.9 ± 0.6 kg/m3 (323.15 K, x1 = 0.05). For the same compound, the mass density came to 1090.6 ± 0.3 kg/m3 (333.15 K, x1 = 0.01); 1295.9 ± 0.4 kg/m3 (333.15 K, x1 = 0.03); 1489.1 ± 0.6 kg/m3 (333.15 K, x1 = 0.05).
Consider `[Br-].[Li+]` [lithium bromide] + O, for which the mass density reads like this: (293.15 K, x1 = 0.01) 1033.5 ± 0.2 kg/m3; (293.15 K, x1 = 0.03) 1101.8 ± 0.3 kg/m3; (293.15 K, x1 = 0.05) 1171.5 ± 0.3 kg/m3; (303.15 K, x1 = 0.01) 1030.2 ± 0.2 kg/m3; (303.15 K, x1 = 0.03) 1098 ± 0.3 kg/m3; (303.15 K, x1 = 0.05) 1168 ± 0.3 kg/m3. The mass density runs as follows: (313.15 K, x1 = 0.01) 1026.3 ± 0.2 kg/m3; (313.15 K, x1 = 0.03) 1093.9 ± 0.3 kg/m3; (313.15 K, x1 = 0.05) 1163.9 ± 0.3 kg/m3; (323.15 K, x1 = 0.01) 1022 ± 0.2 kg/m3; (323.15 K, x1 = 0.03) 1089.4 ± 0.3 kg/m3; (323.15 K, x1 = 0.05) 1159.3 ± 0.3 kg/m3. Also, the mass density reads like this: (333.15 K, x1 = 0.01) 1017.2 ± 0.2 kg/m3; (333.15 K, x1 = 0.03) 1084.6 ± 0.3 kg/m3; (333.15 K, x1 = 0.05) 1154.3 ± 0.3 kg/m3.
